According to US8236826B2, “Diarylether derivatives as antitumor agents” (Otsuka Pharmaceutical Co., Ltd., priority 2005, dated 2012):
Counter-ions that a name gives are not always drawn.

`Cc1cc(N(C)CC(=O)N2CCN(Cc3ccoc3)CC2)ccc1Oc1ccc(NC(=O)c2ccc(C(F)(F)F)cc2)cn1` (as salt: hydrochloride) [Example 792] and `COc1cc(N(C)CC(=O)N2CCN(Cc3ccoc3)CC2)ccc1Oc1ccc(NC(=O)c2ccc(C(F)(F)F)cc2)cn1` [Example 785] cannot be ordered by melting point: 158.5 to 161 °C for the first, 160 to 164 °C for the second.

First: O=C(Nc1ccc(Oc2ccc(C3CCN(C(=O)CN4CCOCC4)CC3)cc2)cc1)c1ccc(Cl)c(Cl)c1 (as salt: hydrochloride) [Example 2571]
Second: O=C(Nc1ccc(Oc2ccc(N3CCN(C(=O)CN4CCOCC4)CC3)cc2)cc1)c1ccc(Cl)c(Cl)c1 [Example 2559]
The melting point of the first is lower: 146 to 150 °C for the first, 177 to 178 °C for the second.

First: CCN(CC(=O)N1CCN(Cc2ccccc2)CC1)c1ccc(Oc2ccc(NC(=O)c3ccc(C(F)(F)F)cc3)cn2)c(C)c1 (as salt: maleate) [Example 1513]
Second: Cc1cc(N(C)CC(=O)N2CCN(Cc3ccccc3)CC2)ccc1Oc1ccc(NC(=O)c2ccc(C(F)(F)F)cc2)cn1 [Example 1515]
The melting point of the first is higher: 165 to 167 °C for the first, 110 to 111 °C for the second.

First: O=C(Nc1ccc(Oc2ccc(C(=O)N3CCOCC3)cc2)cc1)c1ccc(Cl)c(Cl)c1 [Example 10]
Second: O=C(Nc1ccc(Oc2ccc(C(=O)N3CCOCC3)cc2)c(F)c1)c1ccc(Cl)c(Cl)c1 [Example 11]
The melting point of the first is lower: 189 to 192 °C for the first, 203 to 204 °C for the second.

First: O=C(Nc1ccc(Oc2ccc(C(=O)N3CCN(c4ccccn4)CC3)cc2)nc1)c1ccc(C(F)(F)F)cc1 [Example 176]
Second: CC(=O)N(CC(=O)N1CCN(Cc2ccccc2)CC1)c1ccc(Oc2ccc(NC(=O)c3ccc(C(F)(F)F)cc3)cn2)cc1 [Example 771]
The melting point of the first is higher: 222 to 224 °C for the first, 161 to 162 °C for the second.

First: CC(C)(C)OC(=O)N1CCN(C(=O)CCc2ccc(Oc3ccc(NC(=O)c4ccc(Cl)c(Cl)c4)cc3F)cc2)CC1 [Example 464]
Second: O=C(Nc1ccc(Oc2ccc(CCC(=O)N3CCN(c4cccnc4)CC3)cc2)c(F)c1)c1ccc(Cl)c(Cl)c1 [Example 467]
The melting point of the first is lower: 155 to 157 °C for the first, 183 to 185 °C for the second.

Compared with `O=C(Nc1ccc(Oc2ccc(CCC(=O)N3CCN(c4cccnc4)CC3)cc2)cc1)c1ccc(Cl)c(Cl)c1` [Example 466], `O=C(Nc1ccc(Oc2ccc(N3CCN(C(=O)COc4ccccc4)CC3)cc2)cc1)c1ccc(Cl)c(Cl)c1` [Example 2052] is higher in melting point: 153 to 155 °C for the first, 171 to 173 °C for the second.

First: Cc1cc(N(C)CC(=O)N2CCN(Cc3ccoc3)CC2)ccc1Oc1ccc(NC(=O)c2ccc(Cl)c(Cl)c2)cn1 [Example 718]
Second: Cc1cc(N(C)CC(=O)N2CCN(Cc3ccccc3)CC2)ccc1Oc1ccc(NC(=O)c2ccc(Cl)c(Cl)c2)cn1 [Example 1516]
The melting point of the first is higher: 116.5 to 118 °C for the first, 111 to 113 °C for the second.

Compared with `CC(=O)N(CC(=O)N1CCN(Cc2ccc3c(c2)OCO3)CC1)c1ccc(Oc2ccc(NC(=O)c3ccc(Cl)c(Cl)c3)cn2)c(C)c1` [Example 725], `CC(=O)N(CC(=O)N1CCN(Cc2ccc3c(c2)OCO3)CC1)c1ccc(Oc2ccc(NC(=O)c3ccc(Cl)c(Cl)c3)cn2)c(F)c1` [Example 730] is higher in melting point: 216 to 217 °C for the first, 233 to 235 °C for the second.

First: CCN(CC(=O)N1CCN(Cc2ccc3c(c2)OCO3)CC1)c1ccc(Oc2ccc(NC(=O)c3ccc(Cl)c(Cl)c3)cn2)c(F)c1 [Example 728]
Second: CN(CC(=O)N1CCN(Cc2ccc3c(c2)OCO3)CC1)c1ccc(Oc2ccc(NC(=O)c3ccc(Cl)c(Cl)c3)cn2)c(F)c1 [Example 729]
The melting point of the first is lower: 149 to 151 °C for the first, 199 to 201 °C for the second.

First: CCN(CC(=O)N1CCN(Cc2ccc3c(c2)OCO3)CC1)c1ccc(Oc2ccc(NC(=O)c3ccc(C(F)(F)F)cc3)cn2)cc1 [Example 774]
Second: CCN(CC(=O)N1CCN(Cc2ccc3c(c2)OCO3)CC1)c1ccc(Oc2ccc(NC(=O)c3ccc(C(F)(F)F)cc3)cn2)c(F)c1 [Example 775]
The melting point of the first is higher: 178 to 180 °C for the first, 170 to 172 °C for the second.

First: CN(CC(=O)N1CCN(Cc2ccc3c(c2)OCO3)CC1)c1ccc(Oc2ccc(NC(=O)c3ccc(C(F)(F)F)cc3)cn2)c(F)c1 [Example 776]
Second: Br.CN(CC(=O)N1CCN(Cc2ccc3c(c2)OCO3)CC1)c1cc(F)c(Oc2ccc(C(=O)Nc3ccc(C(F)(F)F)cc3)cn2)cc1F [Example 1037, 6-(4-{[2-(4-Piperonylpiperazin-1-yl)-2-oxoethyl]methylamino}-2,5-difluorophenoxy)-N-(4-trifluoromethylphenyl)nicotinamide hydrobromide]
The melting point of the first is lower: 220 to 221 °C for the first, 224.5 to 226 °C for the second.

First: CCN(CC(=O)N1CCN(Cc2ccoc2)CC1)c1ccc(Oc2ccc(NC(=O)c3ccc(C(F)(F)F)cc3)cn2)c(OC)c1 [Example 784]
Second: CCN(CC(=O)N1CCN(Cc2ccccc2)CC1)c1ccc(Oc2ccc(NC(=O)c3ccc(Cl)c(Cl)c3)cn2)c(C)c1 [Example 1514]
The melting point of the first is higher: 174 to 176 °C for the first, 102 to 105 °C for the second.

First: O=C(Nc1ccc(Oc2ccc(N3CCN(Cc4ccccc4)C3=O)cc2)nc1)c1ccc(C(F)(F)F)cc1 [Example 1181]
Second: O=C(Nc1ccc(Oc2ccc(N3CCN(Cc4ccccc4)C3=O)cc2)nc1)c1ccc(Cl)c(Cl)c1 [Example 1182]
The melting point of the first is higher: 203 to 204 °C for the first, 186 to 187 °C for the second.

Compared with `Cc1cc(N2CCCN(Cc3ccc4c(c3)OCO4)C2=O)ccc1Oc1ccc(NC(=O)c2ccc(C(F)(F)F)cc2)cn1` [Example 1183], `Cc1cc(N2CCN(Cc3ccc4c(c3)OCO4)C2=O)ccc1Oc1ccc(NC(=O)c2ccc(C(F)(F)F)cc2)cn1` [Example 1504, N-{6-[2-methyl-4-(2-oxo-3-piperonylimidazolidin-1-yl)phenoxy]pyridin-3-yl}-4-trifluoromethylbenzamide] is higher in melting point: 165 to 166 °C for the first, 188 to 189 °C for the second.

First: Cc1cc(N2CCCN(Cc3ccc4c(c3)OCO4)C2=O)ccc1Oc1ccc(NC(=O)c2ccc(Cl)c(Cl)c2)cn1 [Example 1184]
Second: COc1ccc(CN2CCCN(c3ccc(Oc4ccc(NC(=O)c5ccc(Cl)c(Cl)c5)cn4)c(C)c3)C2=O)cc1OC [Example 1187]
The melting point of the first is higher: 122 to 124 °C for the first, 117 to 118 °C for the second.

First: COc1ccc(CN2CCCN(c3ccc(Oc4ccc(NC(=O)c5ccc(C(F)(F)F)cc5)cn4)c(C)c3)C2=O)cc1OC [Example 1185]
Second: CCOC(=O)c1ccc(N2CCCN(c3ccc(Oc4ccc(NC(=O)c5ccc(C(F)(F)F)cc5)cn4)c(C)c3)C2=O)cc1 [Example 1188]
The melting point of the first is lower: 155 to 157 °C for the first, 160 to 161 °C for the second.

First: Cc1cc(N2CCCN(CC(=O)N3CCN(Cc4ccc5c(c4)OCO5)CC3)C2=O)ccc1Oc1ccc(NC(=O)c2ccc(C(F)(F)F)cc2)cn1 [Example 1186]
Second: Cc1cc(N2CCC(CC(=O)N3CCN(Cc4ccc5c(c4)OCO5)CC3)CC2)ccc1Oc1ccc(NS(=O)(=O)c2ccc(C(F)(F)F)cc2)cn1 [Example 2703, N-[6-(4-{4-[2-(4-piperonylpiperazin-1-yl)-2-oxoethyl]piperidin-1-yl}-2-methylphenoxy)pyridin-3-yl]-4-trifluoromethylbenzenesulfonamide]
The melting point of the first is higher: 182 to 183.5 °C for the first, 156 to 158 °C for the second.

Compared with `CN(CC(=O)N1CCN(Cc2ccc3c(c2)OCO3)CC1)c1ccc(Oc2ccc(NS(=O)(=O)c3ccc(Cl)c(Cl)c3)cn2)c(F)c1` [Example 1615, 3,4-dichloro-N-[6-(2-fluoro-4-{methyl[2-oxo-2-(4-piperonylpiperazin-1-yl)ethyl]amino}phenoxy)pyridin-3-yl]benzenesulfonamide], `Cc1cc(N(C)CC(=O)N2CCN(C(=O)c3ccc4c(c3)OCO4)CC2)ccc1Oc1ccc(NC(=O)c2ccc(Cl)c(Cl)c2)cn1` [Example 2054] is lower in melting point: 185.6 to 187 °C for the first, 133 to 135 °C for the second.

Compared with `O=C(Nc1ccc(Oc2ccc(N3CCN(S(=O)(=O)c4ccccc4)CC3)cc2)cc1)c1ccc(Cl)c(Cl)c1` [Example 2031, N-{4-[4-(4-benzenesulfonylpiperazin-1-yl)phenoxy]phenyl}-3,4-dichlorobenzamide], `O=C(Nc1ccc(Oc2ccc(N3CCN(C(=O)COc4ccc5c(c4)OCO5)CC3)cc2)cc1)c1ccc(Cl)c(Cl)c1` [Example 2053] is lower in melting point: 191 to 192 °C for the first, 116 to 118 °C for the second.

`CC(=O)N(c1ccc(CCC(=O)N2CCN(Cc3ccc4c(c3)OCO4)CC2)cc1)c1ccc(NC(=O)c2ccc(Cl)c(Cl)c2)cn1` [Example 2099, N-[6-(Acetyl{4-[3-oxo-3-(4-piperonylpiperazin-1-yl)propyl]phenyl}amino)pyridin-3-yl]-3,4-dichlorobenzamide] and `Cc1cc(N(C)CC(=O)N2CCN(Cc3ccc4c(c3)OCO4)CC2)ccc1Oc1ccc(NC(=O)c2ccc(-n3cccc3)cc2)cn1` [Example 2711, N-[6-(4-{[2-(4-piperonylpiperazin-1-yl)-2-oxoethyl]methylamino}-2-methylphenoxy)pyridin-3-yl]-4-pyrrole-1-ylbenzamide] cannot be ordered by melting point: 150 to 165 °C for the first, 163.1 to 166.5 °C for the second.

Compared with `O=C(Nc1ccc(Oc2ccc(C3=CCN(CCCn4ccnc4)CC3)cc2)cc1)c1ccc(Cl)c(Cl)c1` [Example 2486, 3,4-Dichloro-N-(4-{4-[1-(3-imidazole-1-ylpropyl)-1,2,3,6-tetrahydropyridine-4-yl]phenoxy}phenyl)-benzamide], `O=C(Nc1ccc(Oc2ccc(C3=CCN(C(=O)CN4CCOCC4)CC3)cc2)cc1)c1ccc(Cl)c(Cl)c1` [Example 2565] is higher in melting point: 169 to 171 °C for the first, 195 to 197 °C for the second.

First: O=C(CN1CCOCC1)c1ccc(Oc2ccc(NC(=O)c3ccc(Cl)c(Cl)c3)cc2F)cc1 [Example 2563]
Second: CN(C(=O)CN1CCOCC1)C1CCN(c2ccc(Oc3ccc(NC(=O)c4ccc(Cl)c(Cl)c4)cc3)cc2)CC1 [Example 2572]
The melting point of the first is higher: 177 to 178 °C for the first, 157 to 160 °C for the second.

`O=C(C1CCN(c2ccc(Oc3ccc(NS(=O)(=O)c4ccc(Cl)c(Cl)c4)cn3)cc2)CC1)N1CCN(Cc2ccccc2)CC1` [Example 2710, N-(6-{4-[4-(4-benzylpiperazine-1-carbonyl)piperidin-1-yl]phenoxy}pyridin-3-yl)-3,4-dichlorobenzenesulfonamide] gave a melting point of 185 to 189 °C.

With `Cc1cc(N(C)CC(=O)N2CCN(Cc3ccc4c(c3)OCO4)CC2)ccc1Oc1ccc(NC(=O)c2ccc(Cl)c(Cl)c2)cn1` (as salt: hydrochloride) [Example 1512] the melting point was 183 to 185 °C (dec.).
